Reference: a melting point compilation (Tetko et al.; mined from patent text by program, amines drawn as free bases though some values may be those of a salt)

| SMILES | melting point [°C] |
| --- | --- |
| CCCCN(C(=O)c1ccc(Cl)cc1)[C@@H]1CN(CC)C[C@H]1O (relative stereo) | 96.5 to 98 |
| CC(C)Oc1ccc2c(c1)OC(C(F)(F)F)C(C(=O)O)=C2 (configuration not stated) | 161 to 163 |
| CN(C)[C@H]1CCC[C@H]1C(=O)O (relative stereo) | 82 to 84 |
| COc1ccc(C=NNc2ccc(S(N)(=O)=O)cc2)cc1 | 228 to 231 |
| CCCc1ccnc(C(=O)c2[nH]c3ccc(Cl)cc3c2CC(=O)O)c1 | 208 to 209 |
| O=C(O)CCNC(=O)c1cc([N+](=O)[O-])c2ccccc2c1O | 254 |
| CC(=O)OCc1csc(Nc2ccc(Br)cn2)n1 | 201 to 202 |
| CC(C)(C)C(NC(=O)c1ccc(Cl)cc1F)NC(=NC#N)Nc1cccnc1 (configuration not stated) | 183 to 184 |
| CCOC(=O)CCCCn1c(=O)[nH]c2ccsc2c1=O | 116 to 117 |
| CC(=O)CCc1ccc(C(=O)Nc2ccc3cc(CN4CCCC4)cnc3c2C)cc1 | 106 to 108 |
| O=C1c2cccc(-c3ccccc3)c2C(=O)C1c1ccccc1 (configuration not stated) | 166 to 168 |
| Nc1nc(N)nc(-c2ccc3c(c2)OCCO3)n1 | 241 to 244 |
| BrCc1cccc2cccc(CBr)c12 | 131 to 132 |
| CC1C(=O)N2CCCC(C(=O)OC(C)(C)C)N2C1=O (configuration not stated) | 127 to 128 |
| CCN1CC(NC(=O)Nc2cc(Cl)cc(Cl)c2)CN1CC | 165 to 167 |
| CC(C)(C)n1ncc(C(N)=O)c1N | 193 to 195 |
| NC(=O)C(c1ccccc1Cl)N1CCc2sccc2C1 (configuration not stated) | 124 to 126 |
| CCCCc1cc2cc(O)ccc2c(Oc2ccc(/C=C/C(=O)O)cc2)c1-c1ccccc1 | 128 to 130 |
| O=C1COC2CCCc3nc4ccccc4c(c32)N1 (configuration not stated) | 173 to 175 |
| COC(=O)c1cc(F)ccc1Nc1ccnc2c(C(F)(F)F)cccc12 | 166 |
| Cc1c[nH]c2c(Sc3nc4cc(Cl)ccc4[nH]3)ccc([N+](=O)[O-])c12 | 252 to 253 |
| C[C@H](N[C@H]1CC[C@@H](c2ccccc2)CC1)[C@@H](O)c1ccc(O)cc1 | 199 to 212 |
| COc1cc(OC)c2c(c1)OC(C(C)(C)C(N)=O)CC2=O (configuration not stated) | 161 to 163 |
| CCOP(OCC)c1ccccc1P(c1cccc2ccccc12)c1cccc2ccccc12 | 94 to 95 |
| NC(=O)N1CC(Oc2ccc(Br)cc2)C1 | 193 to 194 |
| Cc1ccc(NC(=O)OC2CCCCC2)cc1NC(=O)OC1CCCCC1 | 156 |
| CCCCCCOc1nc(O)ns1 | 61 |
| CCCCCCc1ccc(C(=O)Cc2ccc(Br)cc2)cc1 | 108 |
| CC(C)(C)c1ncc2cc(Cl)nc(Cl)n12 | 109 to 110 |

Results, then the compound that gave them:

| melting point [°C] | SMILES |
| --- | --- |
| 184 to 185 | CC(=O)NC1(c2ccc(CN3CCN(c4nccs4)CC3)cc2)CC1 |
| 134 to 140 | COC(=O)C1=C(C)NC(C)=C(C(=O)OCCCCCCN2C(=O)c3ccccc3C2=O)C1c1cccc([N+](=O)[O-])c1 (configuration not stated) |
| 267 | Cc1cc(-c2cccc(C3=Nc4cc(N5CCCC5)c(C#N)cc4NC(=O)C3)c2)on1 |
| 91.5 to 92.5 | CC(c1ccc(-c2ccccc2)c(F)c1)c1nc(CN2CCOCC2)no1 (configuration not stated) |
| 87 to 89 | CC(C)(C#N)c1cc(C(=O)c2cccnc2)cc(C(C)(C)C#N)c1 |
| 210 to 212 | CC1(C)CCC(C)(C)c2cc(CCOc3ccc(C(=O)O)c(O)c3)ccc21 |
| 55 to 57 | Cc1oc(-c2ccccc2)nc1COc1cccc(C#CC(C)n2oc(=O)[nH]c2=O)c1 (configuration not stated) |
| 268 to 269 | O=C(O)c1ccc(COCc2csc3nc(C(=O)NCc4ccccc4)[nH]c(=O)c23)cc1 |
| 126 | COC(=O)[C@H](Cc1ccc(NC=O)cc1)NC(C)=O |
| 253 | NC(=S)Nc1nncs1 |
| 165 to 170 | Cc1noc(C)c1S(=O)(=O)n1c(Br)nc(Br)c1Br |
| 146 to 150 | CCOC(=NS(=O)(=O)c1ccccc1)N1Cc2ccccc2-c2ccccc2C1 |
| 268 to 269 | Cc1[nH]n(C2CCCO2)c2nc(-c3ccncc3)nc(=O)c1-2 (configuration not stated) |
